According to publication PMC8482776 (ACS Omega, 2021):
In brackets after ≈: the same amount, converted by molar mass. Several values for one entry are separate records, joined by “and”; a condition that tells them apart may be missing. Equal entries are not always repeated.

Legend:
[1] = system: FLC-resistant clinical Candida isolate R4 (C. albicans); assay: PMIC90, FLC-resistant isolate R4; format: cell-based; conditions: strain R4, planktonic
[2] = system: FLC-resistant clinical Candida isolate R5 (C. albicans); assay: PMIC90, FLC-resistant isolate R5; format: cell-based; conditions: strain R5, planktonic
[3] = system: FLC-resistant clinical Candida isolate R2 (C. albicans); assay: PMIC90, FLC-resistant isolate R2; format: cell-based; conditions: strain R2, planktonic
[4] = system: C. albicans (ATCC 10231); assay: Time-kill assay; format: cell-based; conditions: 24 h period
[5] = system: Microsporum gypseum (PTCC 5070); assay: Microdilution MIC90, strain L; format: cell-based; conditions: filamentous fungi, 48 h at 37 °C, triplicate
[6] = system: C. tropicalis (PTCC 5028); assay: Microdilution MIC90, strain E; format: cell-based; conditions: 24 h
[7] = system: human red blood cells (hRBCs); assay: Hemolysis assay; format: cell-based; conditions: 100 μg/mL, 2 h at 37 °C
[8] = system: C. krusei (ATCC 6258); assay: Microdilution MIC90, strain B; format: cell-based
[9] = system: Asp. nidulans (PTCC 5014); assay: Microdilution MIC90, strain F; format: cell-based, Aspergillus nidulans; conditions: Aspergillus nidulans, PTCC5014, 48 h, filamentous fungi, 48 h at 37 °C, triplicate
[10] = system: C. albicans (ATCC 10231); assay: Membrane permeabilization assay; format: cell-based; conditions: 8b, 8c at 1 × MIC, 2 × MIC, 4 × MIC (0.5, 1, 2 μg/mL); AMB 1 μg/mL; 3 h at 28 °C
[11] = system: T. mentagrophytes (PTCC 5054); assay: Microdilution MIC90, strain M; format: cell-based; conditions: Trichophyton mentagrophytes, PTCC5054, 48 h
[12] = system: FLC-resistant clinical Candida isolates (R1–R7); assay: PMIC, seven FLC-resistant clinical Candida isolates; format: cell-based; conditions: read-out: MIC (growth inhibition concentrations)
[13] = system: T. rubrum (PTCC 5143); assay: Microdilution MIC90, strain K; format: cell-based, Trichophyton rubrum; conditions: Trichophyton rubrum, PTCC5143, 48 h, filamentous fungi, 48 h at 37 °C, triplicate
[14] = system: T. schoenleinii (PTCC 5221); assay: Microdilution MIC90, strain N; format: cell-based; conditions: Trichophyton schoenleinii, PTCC5221, 48 h
[15] = system: C. albicans (ATCC 10231); assay: Murine model of systemic candidiasis; format: in vivo; conditions: neutropenic mice (n = 5), 15 mg/kg oral gavage, left kidney tissue
[16] = system: HDF normal cells; assay: MTT cytotoxicity assay, HDF; format: cell-based, human; conditions: HDF normal cell line, up to 100 μg/mL, 48 h
[17] = MTT cytotoxicity assay, A-431; format: cell-based, human; conditions: human, A-431 epidermoid carcinoma cells
[18] = system: C. albicans (ATCC 10231); assay: Microdilution MIC90, strain A; format: cell-based; conditions: strain A
[19] = system: FLC-resistant clinical C. albicans isolate (R2) biofilm; assay: Antibiofilm MTT reduction assay, strain R2; format: cell-based; conditions: triplicate
[20] = system: FLC-resistant clinical Candida isolate R3 (C. albicans); assay: PMIC90, FLC-resistant isolate R3; format: cell-based; conditions: strain R3, planktonic
[21] = system: FLC-resistant clinical Candida isolate R6 (C. albicans); assay: PMIC90, FLC-resistant isolate R6; format: cell-based; conditions: strain R6, planktonic
[22] = system: M. canis (PTCC 5069); assay: Microdilution MIC90, strain O; format: cell-based; conditions: Microsporum canis, PTCC5069, 48 h
[23] = system: Asp. fumigatus (PTCC 5009); assay: Microdilution MIC90, strain H; format: cell-based; conditions: filamentous fungi, 48 h at 37 °C, triplicate
[24] = system: Asp. niger (PTCC 5154); assay: Microdilution MIC90, strain I; format: cell-based, Aspergillus niger; conditions: filamentous fungi, 48 h at 37 °C, triplicate
[25] = system: PANC-1; assay: MTT cytotoxicity assay, PANC-1; format: cell-based, human; conditions: PANC-1, at 30 and 60 μg/mL, 48 h
[26] = system: C. glabrata (ATCC 90030); assay: Microdilution MIC90, strain C; format: cell-based; conditions: yeast, 24 h at 37 °C, triplicate
[27] = system: Asp. terreus (PTCC 5023); assay: Microdilution MIC90, strain J; format: cell-based, Aspergillus terreus; conditions: filamentous fungi, 48 h at 37 °C, triplicate
[28] = system: FLC-resistant clinical Candida isolate R1 (C. albicans); assay: PMIC90, FLC-resistant isolate R1; format: cell-based; conditions: strain R1, planktonic
[29] = system: C. parapsilosis (ATCC 22019); assay: Microdilution MIC90, strain D; format: cell-based; conditions: 24 h
[30] = system: FLC-resistant clinical Candida isolate R7 (C. glabrata); assay: PMIC90, FLC-resistant isolate R7; format: cell-based; conditions: strain R7, planktonic
[31] = system: Asp. flavus (ATCC 204304); assay: Microdilution MIC90, strain G; format: cell-based, Aspergillus flavus; conditions: Aspergillus flavus, ATCC204304, 48 h, filamentous fungi, 48 h at 37 °C, triplicate
[32] = system: FLC-resistant clinical C. albicans isolate (R1) biofilm; assay: Antibiofilm MTT reduction assay, strain R1; format: cell-based; conditions: triplicate
[33] = 24 h, yeast, 24 h at 37 °C, triplicate

Q: Which results are given for COc1ccc(NC(=O)Nc2nnc(SCC(O)(Cn3cncn3)c3ccc(F)cc3F)s2)cc1 (stereo not drawn) [Compound 8b, 1-(5-((2-(2,4-Difluorophenyl)-2-hydroxy-3-(1H-1,2,4-triazol-1-yl)propyl)thio)-1,3,4-thiadiazol-2-yl)-3-(4-methoxyphenyl)urea]?
A: PMIC90 [1]: 1 µg/mL; PMIC90 [2]: 2 µg/mL; PMIC90 [3]: 0.5 µg/mL; time-kill effect at 4 × MIC ([4]; at 4 × MIC (2 μg/mL for 8b, 8c; 64 μg/mL for FLC)): fungicidal activity of compound 8b significantly enhanced; time-kill effect at MIC ([4]; at MIC (0.5 μg/mL)): fungicidal effect; MIC90 [5]: 4 μg·mL^–1; MIC90 [6]: 1 µg/mL (≈ 1.92 µM); hemolysis (in words) [7]: limited hemolysis; MIC90 [8, 33]: 0.5 µg/mL (≈ 0.962 µM); fold greater potency than that of FLC ([8]; from MIC values): 32 fold; MIC90 [9]: 8 µg/mL (≈ 15.4 µM); cellular uptake of the PI dye [10]: none of our compounds 8b and 8c (at 1 × MIC, 2 × MIC, or 4 × MIC) induced the cellular uptake of the PI dye; MIC90 [11]: 4 µg/mL (≈ 7.7 µM); MIC [12]: 0.25 to 2 µg/mL (≈ 0.481 to 3.85 µM); MIC90 [13]: 2 µg/mL (≈ 3.85 µM); MIC90 [14]: 8 µg/mL (≈ 15.4 µM); kidney fungal burden, CFU/g (mean ± SD) [15]: 414 CFU/g and 414 ± 67.7 ^b CFU/g; toxicity (in words) [16]: none of the active compounds displayed toxicity; viability at 48 h, 100 μg/mL [17]: < 50%; MIC90 [18, 33]: 0.5 µg/mL (≈ 0.962 µM); fold greater potency than that of FLC ([18]; from MIC values): 32 fold; SMIC90 (sessile minimum inhibitory concentration that reduced the metabolic activity of biofilms by 90%) [19]: 1 µg/mL; PMIC90 [20]: 2 µg/mL; PMIC90 [21]: 2 µg/mL; MIC90 [22]: 8 µg/mL (≈ 15.4 µM); MIC90 ([23]; Aspergillus fumigatus, PTCC5009, 48 h): 2 to 4 µg/mL (≈ 3.85 to 7.7 µM); MIC90 [23]: 1 μg·mL^–1; MIC90 ([24]; Aspergillus niger, PTCC5154, 48 h): 2 to 4 µg/mL (≈ 3.85 to 7.7 µM); MIC90 [24]: 4 μg·mL^–1; toxicity (in words) [25]: no toxicity; MIC90 ([26]; 24 h): 1 to 16 µg/mL (≈ 1.92 to 30.8 µM); MIC90 [26]: 1 μg·mL^–1; MIC90 ([27]; Aspergillus terreus, PTCC5023, 48 h): 2 to 4 µg/mL (≈ 3.85 to 7.7 µM); MIC90 [27]: 4 μg·mL^–1; PMIC90 [28]: 0.25 µg/mL; MIC90 [29]: 2 µg/mL (≈ 3.85 µM); PMIC90 [30]: 1 µg/mL; MIC90 [31]: 8 µg/mL (≈ 15.4 µM); SMIC90 (sessile minimum inhibitory concentration that reduced the metabolic activity of biofilms by 90%) [32]: 0.5 µg/mL
